The test system of one data set is HepG2 cells. Briefly: Cytotoxicity MTT assay. Particulars: HepG2, 128 μg/mL, 24 h. The method, then: In addition to a single vehicle control, compounds (diluted from DMSO stock) were added to each well to obtain in a final 128 μg/mL concentration (max. final DMSO concentration 0.5%) for all compounds except for oritavancin which was administered at 50 μM. Incubation was done for 24 h at 37° C., 7% CO2. After the incubation, MTT was added to each well at a final concentration of 0.40 mg/mL. The plates were then incubated for 2 h at 37° C., 7% CO2. Medium was carefully removed via suction, and purple formazan crystals were resuspended in 100 μL DMSO. Absorbance was read at 570 nm using a Clariostar plate reader. The data was then analysed with GraphPad Prism software. Technical triplicates for each condition were used, along with biological duplicates.
A general note: Tetrazolium dyes change colour on reduction, which living cells bring about.

A further data set deals with E. coli ATCC 25922. Briefly: Mouse thigh abscess (neutropenic thigh infection) efficacy model. It is filed as in vivo, mice (ICR, CD1). How it is done: Efficacy study: The in vivo efficacy of compound 6 was assessed in a mouse thigh abscess model where both thighs of each mouse were infected with E. coli ATCC 25922 Immunosuppression: Mice were rendered neutropenic with subcutaneous injections of cyclophosphamide at 150 mg/kg 4 days before infection and 100 mg/kg 1 day before infection. The immunosuppression regime leads to neutropenia starting 24 h post administration of the first injection, which continues throughout the study.
Infection: The bacterial strain used was E. coli ATCC 25922. An aliquot of a previously prepared frozen stock of the strain was thawed and diluted in sterile PBS to the desired inoculum just prior to infection. […]
Endpoints: 1 h and 20.5 (planned 25) h post-infection, the clinical condition of all animals was assessed prior to humane euthanasia using pentobarbitone overdose, and the thighs were removed and weighed. Thigh samples were homogenized in 3 mL ice cold sterile PBS; the homogenates were quantitatively cultured onto CLED agar and incubated at 37° C. for 18-24 h before colonies were counted.
Data analysis: The data from the culture burdens were analysed using appropriate non-parametric statistical models (Kruskal-Wallis using Conover-Inman to make all pairwise comparisons between groups) with StatsDirect software v. […]

A further data set deals with K. pneumoniae JS-123. It is filed as cell-based, Klebsiella pneumoniae. Particulars: JS-123. Summed up:
(§1)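 Broth microdilution in MHB per CLSI; inoculum 2×10^5 CFU mL^−1 from log-phase TSB cultures at OD600 0.5. Plates incubated 16 hours at 37° C with shaking at 220 rpm. MIC is the lowest concentration preventing visible growth.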

In data set [1] the test system is Escherichia coli ATCC 25922. It is filed as cell-based. Particulars: in vitro activity quoted in the in vivo section. Summed up:
as §1

In a further data set the test system is A. baumannii MDR. Type of data set: cell-based, Acinetobacter baumannii. Particulars: A. baumannii MDR clinical isolate. Summed up:
as §1

The next data set deals with P. aeruginosa M-120. Type of data set: cell-based, Pseudomonas aeruginosa. Particulars: M-120. Summed up:
as §1

A short description of data set [2]: In vivo tolerability study. More on the design: species or system mice (ICR, CD1). Particulars: subcutaneous, 3 doses at 8-h intervals, up to 40 mg/kg (total daily dose 120 mg/kg), naive mice. The method, then: Animal Strain: Mice used in these studies were supplied by Charles River (Margate UK) and were specific pathogen free. The strain of mice used was ICR (also known as CD1 Mice) which is a well characterized outbred murine strain. Mice (male) were 11-15 g on receipt and were allowed to acclimatise for at least 7 days.
Test compounds: Compound 6 (i.e. laterocidamide) was dissolved in water for injection in which it formed a clear colourless solution. Polymyxin B was dissolved in saline for injection to produce a clear colourless solution.
Tolerability study: The tolerability of compound 6 was assessed in the same mouse strain used for the efficacy studies. […] The mice used in the tolerability study were naïve and were not immunosuppressed or infected.

Values after ≈ are worked out from the molar mass of the structure shown. Positions of bridges follow the written chain, without caps; N, C: chain ends. Non-standard residues stand in square brackets, D forms with d. Residues, ends and D or L forms follow the SMILES beside them. *: point of attachment. Octanoyl(7-Me) = CC(C)CCCCCC(=O)*; dOrn = NCCC[C@@H](N)C(=O)O; Orn = NCCC[C@H](N)C(=O)O; Dap = NC[C@H](N)C(=O)O

This is an account of results in patent US20240140991A1, “ANTIBIOTIC NATURAL PRODUCT ANALOGUES” (THE QUEEN'S UNIVERSITY OF BELFAST, priority 2021, published 2024).

Take `CC[C@H](C)[C@@H]1NC(=O)[C@@H](NC(=O)[C@H](Cc2c[nH]c3ccccc23)NC(=O)[C@@H](CCCN)NC(=O)CNC(=O)[C@H](CCCN)NC(=O)[C@@H](CCCN)NC(=O)[C@@H](Cc2c[nH]c3ccccc23)NC(=O)[C@@H](Cc2ccc(O)cc2)NC(=O)[C@@H](CO)NC(=O)CCCCCC(C)C)CNC(=O)CNC(=O)CNC(=O)[C@H](CC(N)=O)NC1=O` [Laterocidamide, laterocidamide] ({Octanoyl(7-Me)}-[dS][dY][dW][dOrn][Orn]G[dOrn]W[Dap]INGG; lactam 9-C): the results for the “cytotoxicity / cell viability” value in the data set on HepG2 cells and in the data set on HepG2 cells (listed as compound 6) were “completely non-toxic” and “low cytotoxicity”, respectively. Also, the “reduction in bacterial load relative to the untreated group” value in the data set with E. coli ATCC 25922 (40 mg/kg SC q8h, neutropenic mice, thigh burden) was ~5 log. Also, the “dose response of thigh burden” value in the data set with E. coli ATCC 25922 (10, 20 and 40 mg/kg SC q8h) is on record as “clear dose response”. For the same compound, the “Minimum inhibitory concentration (MIC)” value is ≤0.5 µg/mL in the data set on K. pneumoniae JS-123, 4 µg/mL (≈ 2.52 µM) in the data set with A. baumannii MDR and 2 to 4 µg/mL in the data set with P. aeruginosa M-120. The compound also gave an MIC values against E. coli ATCC 25922 in data set [1] of 1 µg/mL (≈ 0.629 µM). The tolerability entry is “good tolerability” in data set [2] (listed as Compound 6) and “well tolerated” in data set [2] (listed as compound 6).
